Assay results from patent US6558951B1, “Maturation of dendritic cells with immune response modifying compounds” (3M Innovative Properties Company, priority 1999, dated 2003).

Experiments:
Assay type in all cases: cell-based, human
[1] = tested on: monocyte-derived dendritic cells (MO-DC); experiment: MO-DC cytokine and chemokine secretion (ELISA or bioassay of culture supernatants); details: for IFN-α: bioassay; for IFN-α / IL-6 / IL-8 / IL-12 / MCP-1 / MIP-1α / TNF-α: mean ± SEM
Experimental: Generation of Monocyte-Derived Dendritic Cells (MO-DC). PBMC were isolated with Histopaque HybriMax-1077 density gradient (Sigma) from healthy volunteers after obtaining informed consent. CD14^+ cells were purified by positive selection using CD14^+ microbeads in conjunction with the MiniMACS system (Miltenyi Biotech, Auborn, Calif.) by following the manufacturer's instructions. Purity, as assessed by flow cytometry, was greater than 90%. […] Fresh medium containing GM-CSF and IL-4 was added every three days. MO-DC were routinely used between days 7 and 8 of culture. As a control, depleted lymphocytes were cultured in the same fashion. In Vitro MO-DC Stimulation. […] Cells were subsequently analyzed by flow cytometry for the expression of various cell surface markers, and the cell culture supernatants were analyzed for various cytokines and chemokines by ELISA. Cytokine Analysis. Cytokine levels were measured by ELISA. […] Human IL-6 kits were obtained from Biosource International (Camarillo, Calif.). Human IL-5, IL-8, MIP-1α, MCP-1 and RANTES were purchased from R&D Systems. All ELISA were run according to manufacturer's specifications. […] IFN-α and IFN-β specific antibodies were used to determine which type I IFN was present in the MO-DC supernatants. Results for all ELISAs are presented in pg/ml, whereas IFN results are presented in U/ml.

allogeneic T cells = experiment: Allogeneic lymphocyte activation (primary MLR) by treated MO-DC: T cell proliferation and cytokines
Experimental: Allogeneic Lymphocyte Activation. T-cells were isolated using T-Cell Purification Columns according to manufacturer's specifications (R&D Systems, Minneapolis, Minn). […] Dendritic cells were subsequently washed, resuspended in cRPMI and added at various concentrations (1-32×10^3 per well) to purified responder T-cells (1×10^5 per well) in 96-well flat-bottomed microtiter plates (BD Labware) in a total volume of 200 μl. […] Each well received 1 μCi [^3H]TdR and was harvested 18 hours later. Results are presented as mean CPM±SEM of triplicate wells. […] Cytokine Analysis. Cytokine levels were measured by ELISA. […] Human IL-6 kits were obtained from Biosource International (Camarillo, Calif.). Human IL-5, IL-8, MIP-1α, MCP-1 and RANTES were purchased from R&D Systems. All ELISA were run according to manufacturer's specifications. […] IFN-α and IFN-β specific antibodies were used to determine which type I IFN was present in the MO-DC supernatants. Results for all ELISAs are presented in pg/ml, whereas IFN results are presented in U/ml.

[2] = tested on: monocyte-derived dendritic cells (MO-DC); experiment: MO-DC cell surface maturation marker expression by flow cytometry
Experimental: Generation of Monocyte-Derived Dendritic Cells (MO-DC). […] CD14^+ cells were purified by positive selection using CD14^+ microbeads in conjunction with the MiniMACS system (Miltenyi Biotech, Auborn, Calif.) by following the manufacturer's instructions. […] Fresh medium containing GM-CSF and IL-4 was added every three days. MO-DC were routinely used between days 7 and 8 of culture. As a control, depleted lymphocytes were cultured in the same fashion. In Vitro MO-DC Stimulation. […] Cells were subsequently analyzed by flow cytometry for the expression of various cell surface markers, and the cell culture supernatants were analyzed for various cytokines and chemokines by ELISA. Cell Surface and Intracellular Flow Cytometry. […] Cells (5-10^5) were incubated for 15 minutes incubation at 4° C. with purified IgD (Becton Dickinson) to block non-specific binding, and then the cells were stained for 30 minutes with the antibodies at 4° C. in PBS containing 10% FCS and 0.1% sodium azide. After washing in PBS, the cells were analyzed using a FACScan flow cytometer and Cell Quest software (Becton Dickinson).

[3] = tested on: syngeneic CD3-enriched peripheral blood T cells; experiment: Autologous T cell activation by treated MO-DC (anamnestic response to tetanus toxoid)
Experimental: Autologous T Cell Activation. Autologous T cells and R-848-treated MO-DC were prepared as described for allogeneic T cell stimulation. MO-DC were cultured with R-848 [2 μg/ml] and tetanus toxoid [10 μg/ml] for 24 hours. The MO-DC were washed and cultured at graded doses with PBMC-derived CD3^+ T cells for 7 days. Cell proliferation and analysis were determined as described. Supernatants were also collected; from the same cultures prior to pulsing with [^3H]TdR and analyzed for IFN-γ and IL-5.
Cytokine Analysis. Cytokine levels were measured by ELISA. Human TNF-α, IL-12 (p40/p70), IFNγ, IL-4 and IL-2 kits were purchased from Genzyme (Cambridge, Mass.). Human IL-6 kits were obtained from Biosource International (Camarillo, Calif.). Human IL-5, IL-8, MIP-1α, MCP-1 and RANTES were purchased from R&D Systems. All ELISA were run according to manufacturer's specifications. IFN levels were; measured by bioassay (40). IFN-α and IFN-β specific antibodies were used to determine which type I IFN was present in the MO-DC supernatants. Results for all ELISAs are presented in pg/ml, whereas IFN results are presented in U/ml.

[4] = 0.1 μg/ml, 24 hours, MO-DC supernatant
[5] = 0.4 μg/ml, 24 hours, MO-DC supernatant
[6] = 2.0 μg/ml, 24 hours, MO-DC supernatant
[7] = 8.0 μg/ml, 24 hours, MO-DC supernatant
[8] = treatment time 1 hr, 2 μg/ml R-848 or 1 μg/ml LPS
[9] = treatment time 6 hr, 2 μg/ml R-848 or 1 μg/ml LPS
[10] = treatment time 24 hr, 2 μg/ml R-848 or 1 μg/ml LPS
[11] = MO-DC treated with 2 and 8 μg/ml, MLR supernatants, 96 hours
[12] = 0.1 μg/ml, 24 hours, vs vehicle
[13] = MO-DC treated with 2 μg/ml and 10 μg/ml tetanus toxoid 24 hours, 7 days co-culture

CCOCc1nc2c(N)nc3ccccc3c2n1CC(C)(C)O [R-848, 4-amino-2-ethoxymethyl-α,α-dimethyl-1H-imidazo [4,5-c]quinoline-1-ethanol]
IFN-α [1, 4]: 8 ± 3 U/ml
IL-6 [1, 4]: 20 ± 12 pg/mL
IL-8 [1, 4]: 425 ± 132 pg/mL
IL-12 [1, 4]: 70 ± 21 pg/mL
MCP-1 [1, 4]: 3603 ± 2158 pg/mL
MIP-1α [1, 4]: 57 ± 57 pg/mL
TNF-α [1, 4]: 6 ± 3 pg/mL
IFN-α [1, 5]: 8 ± 3 U/ml
IL-6 [1, 5]: 399 ± 208 pg/mL
IL-8 [1, 5]: 5125 ± 2430 pg/mL
IL-12 [1, 5]: 106 ± 27 pg/mL
MCP-1 [1, 5]: 4864 ± 2213 pg/mL
MIP-1α [1, 5]: 511 ± 314 pg/mL
TNF-α [1, 5]: 14 ± 4 pg/mL
stimulation time for maximal IL-12 secretion ([1]; 2 μg/ml R-848 or 1 μg/ml LPS): between six and twenty four hours
stimulation time for maximal TNF-α secretion ([1]; 2 μg/ml R-848 or 1 μg/ml LPS): between one and six hours
IFN-α [1, 6]: 27 ± 7 U/ml
IL-6 [1, 6]: 6729 ± 1888 pg/mL
IL-8 [1, 6]: 50092 ± 10385 pg/mL
IL-12 [1, 6]: 15984 ± 3860 pg/mL
MCP-1 [1, 6]: 12941 ± 5802 pg/mL
MIP-1α [1, 6]: 15412 ± 5244 pg/mL
TNF-α [1, 6]: 1540 ± 371 pg/mL
IFN-α [1, 7]: 41 ± 12 U/ml
IL-6 [1, 7]: 9690 ± 1269 pg/mL
IL-8 [1, 7]: 66988 ± 11863 pg/mL
IL-12 [1, 7]: 19640 ± 3966 pg/mL
MCP-1 [1, 7]: 16249 ± 7661 pg/mL
MIP-1α [1, 7]: 25956 ± 5782 pg/mL
TNF-α [1, 7]: 2208 ± 240 pg/mL
inhibition of induced IFN bioactivity by neutralizing IFN-α ([1]; MO-DC supernatants, IFN bioassay): greater than 95%
IL-12 [1, 8]: 65 ± 18 pg/mL
TNF-α [1, 8]: 32 ± 10 pg/mL
IL-12 [1, 9]: 4446 ± 2438 pg/mL
TNF-α [1, 9]: 1053 ± 707 pg/mL
IL-12 [1, 10]: 13153 ± 5484 pg/mL
TNF-α [1, 10]: 335 ± 201 pg/mL
allogeneic T cell proliferation vs untreated MO-DC (allogeneic T cells; MO-DC treated for 6 hours): significantly enhanced
allogeneic T cell proliferation vs untreated MO-DC (allogeneic T cells; MO-DC treated for less than 6 hours): not significantly increased
enhancement of IFN-γ production vs untreated MO-DC cultures (allogeneic T cells; [11]): 2- to 3 fold
enhancement of IL-2 production vs untreated MO-DC cultures (allogeneic T cells; [11]): 2- to 3 fold
enhancement of IL-5 production vs untreated MO-DC cultures (allogeneic T cells; [11]): 2- to 3 fold
IL-2, IL-5 or IFN-γ production by T cells (allogeneic T cells; T cells cultured in the presence of compound, without added MO-DC): do not produce
CD83 cell surface expression [2, 12]: no increase
CD86 cell surface expression [2, 12]: no increase
increase in CD40 expression over vehicle treated MO-DC ([2]; 2 μg/ml, 24 hours): 2 fold
increase in CD80 expression over vehicle treated MO-DC ([2]; 2 μg/ml, 24 hours): 2 fold
maximal average increase in CD80 expression (MFI) ([2]; 2 μg/ml, 24 hours): 3- to 4 fold
maximal average increase in CD86 expression (MFI) ([2]; 2 μg/ml, 24 hours): 3- to 4 fold
decrease in CD1a expression ([2]; 2 μg/ml, 24 hours, vs vehicle): not statistically significant
increase in cell surface HLA-DR expression ([2]; 2 μg/ml, 24 hours, vs vehicle): not quantitatively significant
culture time giving maximal DC maturation marker expression ([2]; 2 μg/ml, 24, 48, 72 and 96 hour stimulation examined): 24 h
CD86 expression ([2]; 0.4, 2 and 8 μg/ml, 24 hours, vs vehicle): Enhanced
cell surface expression of CD83 ([2]; 2 and 8 μg/ml, 24 hours, vs vehicle): Enhanced
CD83 expression ([2]; pulsed 6 hours, stained immediately, 2 μg/ml R-848 or 1 μg/ml LPS): significant increase
CD40, CD80, CD86 and HLA-DR expression ([2]; pulsed 6 hours, stained immediately, 2 μg/ml R-848 or 1 μg/ml LPS, vs medium control): not statistically significant
CD83 and CD40 expression ([2]; pulsed 6 hours, washed, re-cultured 18 hours, 2 μg/ml R-848 or 1 μg/ml LPS): significant increase
expression of CD83, CD80, CD86, CD40 or HLA-DR ([2]; pulsed one hour with 2 μg/ml R-848 or 1 μg/ml LPS, then stained): did not show enhanced expression
expression of CD83, CD80, CD86, CD40 or HLA-DR ([2]; pulsed one hour, washed, re-cultured 23 hours, 2 μg/ml R-848 or 1 μg/ml LPS): did not show enhanced expression
IFN-γ production vs MO-DC cultured only with tetanus toxoid antigen [3, 13]: 4- to 11 fold
increase of syngeneic T cell proliferation vs MO-DC not treated with R-848 [3, 13]: 2to 3 fold
IL-5 in culture supernatants ([3]; MO-DC treated with 2 μg/ml and 10 μg/ml tetanus toxoid, autologous MO-DC/T cell system): not detected
